# Measured values: patent publication EP3099166B1, “METHOD TO CONTROL ST[…] SEPTORIA TRITICI” (priority 2014, dated 2015)
# Read-outs that look alike come from different tables or passages of the source.
# Key:
# Septoria tritici [1] = test: Glasshouse trial on wheat, preventive (P1) or curative (K4) application (Example 1); format: in vivo; details: Zymoseptoria tritici
# Method: (§1) The trials were conducted under glasshouse conditions. Wheat was planted and grown under standard conditions with adequate supply of water and nutrients. At BBCH 11, an application of the test compounds was made. Fungicides were applied preventively (1 day before inoculation, P1) or curatively (4 days after inoculation, K4) and with different rates. The Septoria isolates used for inoculation were classified "R12" according their cyp51 haplotype (less sensitive to triazoles due to V136A, I381V, Y461S/H and S524T mutation in cyp51 gene) and resistant to strobilurins due to G143A mutation in cytochrome b gene.
# (§2) Disease levels were assessed by evaluating the average percentage of diseased leaf area 4 weeks after application.
# (§3) The disease levels were converted into efficacies. An efficacy of 0 means that the level of the treated plants corresponds to that of the untreated control plants; an efficacy of 100 means that the treated plants had no disease at all.
# Septoria tritici [2] = test: Glasshouse trial on wheat, curative (K4) application (Example 2); format: in vivo; details: for % Efficacy: wheat, R12 isolates, G143A, 4 weeks after application
# Method: as §1, with “applied” for “applied preventively (1 day before inoculation, P1) or”, “4” for “(4”, “inoculation (K4)” for “inoculation, K4) and”, “1381V,” for “I381V,”
# as §2, §3
# [3] = Zymoseptoria tritici, 672 h, read-out: % Efficacy
smiles,measurement,setting,value
"CCCC1COC(Cn2cncn2)(c2ccc(Cl)cc2Cl)O1 (stereo not drawn) [Propiconazole, propiconazole]",Percent disease control efficacy at 33 g/ha,"Septoria tritici [1]; 672 h, read-out: % Efficacy, 33 g a.i./ha, curative (K4), R12 isolates, G143A, 4 weeks after application",7%
same,Percent disease control efficacy at 33 g/ha,"Septoria tritici [1]; 672 h, read-out: % Efficacy, 33 g a.i./ha, preventative (P1), R12 isolates, G143A, 4 weeks after application",10%
same,Percent disease control efficacy at 125 g/ha,"Septoria tritici [1]; 672 h, read-out: % Efficacy, 125 g a.i./ha, preventative (P1), R12 isolates, G143A, 4 weeks after application",40%
same,Emax at 33 g/ha,Septoria tritici [2]; [3],7%
same,Emax at 125 g/ha,Septoria tritici [2]; [3],20%
"COC(=O)N(OC)c1ccccc1COc1ccn(-c2ccc(Cl)cc2)n1 [Pyraclostrobin, pyraclostrobin]",Percent disease control efficacy at 250 g/ha,"Septoria tritici [1]; 672 h, read-out: % Efficacy, 250 g a.i./ha, preventative (P1), R12 isolates, G143A, 4 weeks after application",51%
same,Percent disease control efficacy at 83 g/ha,"Septoria tritici [1]; read-out: % Efficacy, 83 g a.i./ha, curative (K4, 4 days after inoculation), R12 isolates, G143A, assessed 4 weeks after application",10%
"CO/C=C(/C(=O)OC)c1ccccc1COc1cccc(C(F)(F)F)n1 [Picoxystrobin, picoxystrobin]",% Efficacy,"Septoria tritici [2]; 83 g a.i./ha, curative (K4, 4 days after inoculation)",0%
same,% Efficacy,"Septoria tritici [2]; 250 g a.i./ha, curative (K4)",7%
"OC(Cc1ccccc1Cl)(Cn1nc[nH]c1=S)C1(Cl)CC1 (stereo not drawn) [Prothioconazole, prothioconazole]",Percent disease control efficacy at 67 g/ha,"Septoria tritici [1]; 672 h, read-out: % Efficacy, 67 g a.i./ha, curative (K4), R12 isolates, G143A, 4 weeks after application",7%
same,Percent disease control efficacy at 67 g/ha,"Septoria tritici [1]; 672 h, read-out: % Efficacy, 67 g a.i./ha, preventative (P1), R12 isolates, G143A, 4 weeks after application",10%
same,Emax at 67 g/ha,Septoria tritici [2]; [3],7%
